Converted amounts (≈) assume the structure as drawn.
Assays:
[1] = Toxicity to the cell monolayer in the plaque reduction test (MTD); assay type: cell-based, African Green Monkey; details: monkey, vero cells; minimum concentration which killed the cell monolayer; virus infected Vero cultures, 37°C for 6 days
Procedure: (§1) Vero (African Green Monkey Kidney) cells were grown to confluence in 6 well multidishes, each well being 3.5 cm in diameter'. The cells were incubated with Herpes simplex type 1 virus (HFEM strain) and overlaid with 0.5 mL of 0.9% agarose (w/v) in maintenance medium containing the test compound at a range of concentrations from […] in half-log dilution steps. The virus infected cultures were then incubated at 37°C for 6 days before fixing in 4% formaldehyde solution and staining with carbolfuchsin. The dishes were then examined to find that concentration of test compound causing a 50% reduction in the number of virus plaques formed (PDD50 value) and the minimum concentration of test compound which killed the cell monolayer, leaving a clear zone devoid of cells and virus plaques (MTD).

[2] = tested on: Herpes simplex type 1 virus (HFEM strain); test: Plaque reduction test in Vero cells infected with Herpes simplex type 1 virus; assay type: cell-based; details: Human alphaherpesvirus 1, 144 h, concentration causing a 50% reduction in the number of virus plaques formed, agarose overlay, 37°C for 6 days, read-out: PDD50 (the source's name)
Procedure: as §1

IC50 [2] [µg/mL]	SMILES	MCC at 144 h [1] [µg/mL]
2.8 (≈ 8.89 µM)	O=c1nc2n(cc1/C=C/Br)[C@H]1C[C@H](O)[C@@H](CO2)O1 [1 (b), 2,5'-Anhydro-E-5-(2-bromovinyl)-2'-deoxyuridine]	> 50
13.5 (≈ 37.8 µM)	CC(=O)OC1CC2OC1COc1nc(=O)c(C=CBr)cn12 (stereo not shown) [2 (b), 3'-0-Acetyl-2,5'-anhydro-E-5-(2-bromovinyl)-2'-deoxyuridine]	> 100

— EP0060099A1, “Antiviral agents, their preparation and use” (BEECHAM GROUP PLC, priority 1981, dated 1982)
